Reference: patent publication US20240018120A1, “MAGL INHIBITORS” (H. LUNDBECK A/S, priority 2020, published 2024)

What was measured:
[1] = biological target: T1, MAGL (Homo sapiens, UniProt Q99685); experiment: In vitro competitive substrate hydrolysis enzyme activity assay (pNPA), HEK293 cell lysates; type: biochemical; design: expressed in transfected cells; host or cells: HEK293; conditions: HEK293 lysate
T1 sequence (Q99685 1-303): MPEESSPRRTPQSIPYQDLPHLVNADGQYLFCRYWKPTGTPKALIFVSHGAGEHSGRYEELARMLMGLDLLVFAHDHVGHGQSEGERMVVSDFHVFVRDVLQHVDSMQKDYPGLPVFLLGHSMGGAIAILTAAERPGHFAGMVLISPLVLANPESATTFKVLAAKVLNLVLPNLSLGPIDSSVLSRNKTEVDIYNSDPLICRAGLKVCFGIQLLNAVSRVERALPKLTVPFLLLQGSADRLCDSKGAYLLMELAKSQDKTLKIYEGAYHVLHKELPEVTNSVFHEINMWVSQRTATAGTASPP
Experimental: HEK293 cell lysates expressing recombinant human MAGL enzyme and 4-nitrophenyl acetate (pNPA) substrate were diluted separately in 50 mM HEPES (pH 7.0) containing 200 mM KCl and 1 mM EDTA. Lysates (50 μL, ˜1.2 μg total protein) were preincubated with varying concentrations of inhibitors at 25° C. After 30 min, 2×pNPA substrate (50 μL, 2.5 mM) was added and the rate of substrate turnover was monitored by measuring the increase in absorbance at wavelength 405 nm for 20 minutes at 25° C. using a Biotek Neo2 plate reader. The mean velocity was converted to percent enzyme activity following background subtraction and normalization to DMSO controls. IC50 values were determined by fitting percent enzyme activities to a non-linear regression, 4-parameter, sigmoidal dose response function in Prism GraphPad.

[2] = biological target: T1, MAGL; experiment: In vitro competitive activity-based protein profiling, PC3 human cell membrane proteomes; type: biochemical; design: endogenous in cells; host or cells: PC3 human cells (membrane proteome); conditions: human PC3 membrane proteome; for inhibition at 1 µM: read-out: MAGL % inh. 1 μM (human PC3)
Procedure, shortened: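 Competitive ABPP in PC3 membrane proteome (2.0 mg/mL protein): inhibitors preincubated 30 min at 37° C, then JW912-Bodipy probe added for 30 min at room temperature. MAGL band fluorescence after SDS-PAGE normalised to DMSO; IC50 from 4-parameter sigmoidal fit.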

Compound	IC50 [1] [µM]	inhibition at 1 µM [2] [%]	IC50 [2] [µM]
O=C(Nc1ccc(C(F)(F)F)nc1)C1CC12CCN(C(=O)OC(C(F)(F)F)C(F)(F)F)CC2 (single isomer, unassigned) [Example 78, 1,1,1,3,3,3-hexafluoropropan-2-yl (R or S)-1-((6-(trifluoromethyl)pyridin-3-yl)carbamoyl)-6-azaspiro[2.5]octane-6-carboxylate]	0.00299		0.008
O=C(Nc1cccnc1C(F)(F)F)C1CC12CCN(C(=O)OC(C(F)(F)F)C(F)(F)F)CC2 (single isomer, unassigned) [Example 84, 1,1,1,3,3,3-hexafluoropropan-2-yl (R or S)-1-((2-(trifluoromethyl)pyridin-3-yl)carbamoyl)-6-azaspiro[2.5]octane-6-carboxylate]	0.0101	100	0.0089
O=C(NCc1cccnc1)C1CC12CCN(C(=O)OC(C(F)(F)F)C(F)(F)F)CC2 (single isomer, unassigned) [Example 87, 1,1,1,3,3,3-hexafluoropropan-2-yl (R or S)-1-((pyridin-3-ylmethyl)carbamoyl)-6-azaspiro[2.5]octane-6-carboxylate]	0.463	100	0.2
O=C(Nc1ccnc(C(F)(F)F)n1)[C@@H]1CC12CCN(C(=O)OC(C(F)(F)F)C(F)(F)F)CC2 (single isomer, unassigned) [Example 18]	0.053	100	0.039
O=C(Nc1cncc(F)c1)C1CC12CCN(C(=O)OC(C(F)(F)F)C(F)(F)F)CC2 (single isomer, unassigned) [Example 39, 1,1,1,3,3,3-hexafluoropropan-2-yl (R or S)-1-((5-fluoropyridin-3-yl)carbamoyl)-6-azaspiro[2.5]octane-6-carboxylate]	0.319	90	0.29
O=C(Nc1ccnc(C(F)(F)F)n1)[C@H]1CC12CCN(C(=O)OC(C(F)(F)F)C(F)(F)F)CC2 (single isomer, unassigned) [Example 17]	0.00421	100	0.001
O=C(NC(=O)C1CC12CCN(C(=O)OC(C(F)(F)F)C(F)(F)F)CC2)C1CCCCC1 (single isomer, unassigned) [Example 91, 1,1,1,3,3,3-hexafluoropropan-2-yl (R or S)-1-((cyclohexanecarbonyl)carbamoyl)-6-azaspiro[2.5]octane-6-carboxylate]	0.00599		0.0037
O=C(NC(=O)C1CC12CCN(C(=O)OC(C(F)(F)F)C(F)(F)F)CC2)C1CCCCC1 (single isomer, unassigned) [Example 90, 1,1,1,3,3,3-hexafluoropropan-2-yl (R or S)-1-((cyclohexanecarbonyl)carbamoyl)-6-azaspiro[2.5]octane-6-carboxylate]	0.00579	100	0.0047
O=C(NCc1cccnc1)C1CC12CCN(C(=O)OC(C(F)(F)F)C(F)(F)F)CC2 (single isomer, unassigned) [Example 88, 1,1,1,3,3,3-hexafluoropropan-2-yl (R or S)-1-((pyridin-3-ylmethyl)carbamoyl)-6-azaspiro[2.5]octane-6-carboxylate]	0.0718		0.0325
O=C(Nc1cccc(C(F)(F)F)n1)C1CC12CCN(C(=O)OC(C(F)(F)F)C(F)(F)F)CC2 (single isomer, unassigned) [Example 72, 1,1,1,3,3,3-hexafluoropropan-2-yl (R or S)-1-((6-(trifluoromethyl)pyridin-2-yl)carbamoyl)-6-azaspiro[2.5]octane-6-carboxylate]	0.00617	100	
O=C(Nc1cncnc1)C1CC12CCN(C(=O)OC(C(F)(F)F)C(F)(F)F)CC2 (single isomer, unassigned) [Example 97, 1,1,1,3,3,3-hexafluoropropan-2-yl (R or S)-1-(pyrimidin-5-ylcarbamoyl)-6-azaspiro[2.5]octane-6-carboxylate]	1.38		0.2
O=C(NCc1cccc(C(F)(F)F)n1)C1CC12CCN(C(=O)OC(C(F)(F)F)C(F)(F)F)CC2 (single isomer, unassigned) [Example 76, 1,1,1,3,3,3-hexafluoropropan-2-yl (R or S)-1-(((6-(trifluoromethyl)pyridin-2-yl)methyl)carbamoyl)-6-azaspiro[2.5]octane-6-carboxylate]	0.00241		0.0035
O=C(Nc1cccnc1C(F)(F)F)C1CC12CCN(C(=O)OC(C(F)(F)F)C(F)(F)F)CC2 (single isomer, unassigned) [Example 85, 1,1,1,3,3,3-hexafluoropropan-2-yl (R or S)-1-((2-(trifluoromethyl)pyridin-3-yl)carbamoyl)-6-azaspiro[2.5]octane-6-carboxylate]	0.167		0.099

Now from value to molecule:

IC50 [1] [µM]	inhibition at 1 µM [2] [%]	IC50 [2] [µM]	Compound
0.148	100		O=C(OC(C(F)(F)F)C(F)(F)F)N1CCC2(CC1)CC2C(=O)N1CCN(C2CC2)CC1 (racemic) [Example 34, 1,1,1,3,3,3-Hexafluoropropan-2-yl (±)1-(4-cyclopropylpiperazine-1-carbonyl)-6-azaspiro[2.5]octane-6-carboxylate]
0.00473	100	0.0017	O=C(OC(C(F)(F)F)C(F)(F)F)N1CCC2(CC1)CC2C(=O)N1CCc2cnc(C(F)(F)F)nc2C1 (single isomer, unassigned) [Example 57, 1,1,1,3,3,3-hexafluoropropan-2-yl (R or S)-1-(2-(trifluoromethyl)-5,6,7,8-tetrahydropyrido[3,4-d]pyrimidine-7-carbonyl)-6-azaspiro[2.5]octane-6-carboxylate]
0.102	100		CN(C(=O)[C@H]1CC12CCN(C(=O)OC(C(F)(F)F)C(F)(F)F)CC2)c1cnccn1 (single isomer, unassigned) [Example 12]
0.111	100		O=C(Nc1cnccn1)C1CC12CCN(C(=O)OC(C(F)(F)F)C(F)(F)F)CC2 (single isomer, unassigned) [Example 54, 1,1,1,3,3,3-hexafluoropropan-2-yl (R or S)-1-(pyrazin-2-ylcarbamoyl)-6-azaspiro[2.5]octane-6-carboxylate]
0.0169	100	0.007	O=C(OC(C(F)(F)F)C(F)(F)F)N1CCC2(CC1)CC2C(=O)N1CCc2nc(C3CC3)ncc2C1 (single isomer, unassigned) [Example 63, 1,1,1,3,3,3-hexafluoropropan-2-yl (R or S)-1-(2-cyclopropyl-5,6,7,8-tetrahydropyrido[4,3-d]pyrimidine-6-carbonyl)-6-azaspiro[2.5]octane-6-carboxylate]
0.243	100		CN(C(=O)C1CC12CCN(C(=O)OC(C(F)(F)F)C(F)(F)F)CC2)c1cccnc1 (single isomer, unassigned) [Example 42, 1,1,1,3,3,3-hexafluoropropan-2-yl (R or S)-1-(methyl(pyridin-3-yl)carbamoyl)-6-azaspiro[2.5]octane-6-carboxylate]
0.435	100	0.127	O=C(Nc1cccnc1)[C@@H]1CC12CCN(C(=O)OC(C(F)(F)F)C(F)(F)F)CC2 (single isomer, unassigned) [Example 3]
0.168	100		O=C(OC(C(F)(F)F)C(F)(F)F)N1CCC2(CC1)CC2C(=O)N1CCn2ccnc2C1 (racemic) [Example 186, 1,1,1,3,3,3-hexafluoropropan-2-yl (+)1-(5,6,7,8-tetrahydroimidazo[1,2-a]pyrazine-7-carbonyl)-6-azaspiro[2.5]octane-6-carboxylate]
0.0232	100	0.0048	O=C(OC(C(F)(F)F)C(F)(F)F)N1CCC2(CC1)CC2C(=O)N1CCn2cc(C(F)(F)F)nc2C1 (single isomer, unassigned) [Example 51, 1,1,1,3,3,3-hexafluoropropan-2-yl (R or S)-1-(2-(trifluoromethyl)-5,6,7,8-tetrahydroimidazo[1,2-a]pyrazine-7-carbonyl)-6-azaspiro[2.5]octane-6-carboxylate]
0.0854		0.036	O=C(OC(C(F)(F)F)C(F)(F)F)N1CCC2(CC1)CC2C(=O)N1CCc2ncncc2C1 (single isomer, unassigned) [Example 60, 1,1,1,3,3,3-hexafluoropropan-2-yl (R or S)-1-(5,6,7,8-tetrahydropyrido[4,3-d]pyrimidine-6-carbonyl)-6-azaspiro[2.5]octane-6-carboxylate]
